From US20260007652A1, “Selective Modulators of AhR-Regulated Transcription and Method for Using Such Modulators to Treat Cancer” (OREGON STATE UNIVERSITY, priority 2022, published 2026)

How the values were obtained:
[1] = system: cancer cell line; test: Cell viability of combinations of AhR ligand and synergizer (FIGS. 51, 52); type: cell-based; settings: for cell viability, monotreatments: alone (FIG. 51); for cell viability, mono-applications: alone (FIG. 52)
Protocol: FIG. 51 provides data from cancer cell line trials using 11-Cl-BBQ alone, Evoxine alone, Citropten alone, and combinations comprising 11-Cl-BBQ and Citropten and 11-Cl-BBQ and Evoxine. […] The decrease in cell viability was more than additive. Specifically, for Evoxine in combination with Analog 523, the reduction in cell viability was: 31% at 1 μM; 41% at 3 μM; and 42% at 10 μM. For Citropten in combination with Analog 523, the reduction in cell viability was: 16% at 1 μM; 34% at 3 μM; and 43% at 10

[2] = system: MDA-MB-468 cells; test: Annexin-V apoptosis assay, MDA-MB-468 cells; type: cell-based, human; settings: 10 μM, alone
Protocol: FIGS. 72A-72C presents the characterization of combinations on TNBC cell viability and cell death. Quantitation of Annexin-V staining of MDA-MB-468 cells treated with either 10 μM evoxine, 10 μM citropten, 0.25 μM 11-Cl-BBQ, or corresponding combinations for 72 hours (A and B, respectively). Quantifications represent averages of three independent experiments. C) Colony forming assay of MDA-MB-468 AhR-expressing and AhR KO cells treated with 100 nM Evoxine, 500 nM Citropten, […] 11-Cl-BBQ, or combinations of each compound with 11-Cl-BBQ.
Annexin-V staining was performed 48 hours post-treatment by harvesting cells (floating and attached) with trypsin, followed by addition of serum-containing media, and two washes with ice-cold PBS. Cells were stained with Annexin-V-PerCP conjugates (eBioscience, Waltham, MA, USA) for 15 minutes on ice before washing out residual stain and resuspending in 300 μL of binding buffer. 10,000 events were collected per sample. Data was acquired with a CytoFLEX S flow cytometer (Beckman Coulter, Brea, CA), and analyzed using the CytExpert software (Beckman Coulter).

[3] = system: HepG2 cells; test: Colony forming assay, HepG2 cells; type: cell-based, human; settings: 2.5 μM, alone
Protocol: FIGS. 75A-75C compare the effects of 11-Cl-BBQ and Evoxine in hepatoma: A) Mouse Hepa-1 cells were treated with 11-Cl-BBQ, Evoxine either alone or in combination for 48 hours before assessing cell viability using Cell-Titer Glo Viability Assay. B) Hepa-1 cells treated with Evoxine, 11-Cl-BBQ either alone or in combination for 48 hours with induction of cell death measured by Annexin-V staining and detection by flow cytometry. C) Colony forming assay of HepG2 human hepatocellular carcinoma cells seeded at 300 cell/well in a 24-well plate before treatment with 11-Cl-BBQ, Evoxine either alone or in combination at the indicated concentrations for two weeks, followed by fixation and staining with methylene blue. Quantitation of colonies is shown on the right.
Cells were seeded at a density of 500 cell/well in triplicate in 6-well plates, and the following day, cells were treated with compounds and allowed to incubate for 2-3 weeks before fixation with 50% ethanol/water solution containing 0.1% methylene blue overnight. Colonies were counted manually, or with OpenCFU colony counting software, Images were acquired on a ChemiDoc imaging instrument.

[4] = system: AhR; test: Xenobiotic response element (XRE) driven reporter in Hepa-1 cells, AhR activation; type: cell-based, mouse
Protocol: FIGS. 69A-69D show representative 11-Cl-BBQ analogs (848 and 849) as non-classical AHR ligands. (A) Stability of AHR protein in the H460 whole cell lysate in the presence or absence of 11-Cl-BBQ (5 μM), PRXS-848 (10 μM), and PRXS-849 (10 μM) at the indicated temperatures; GADPH was used as a loading control. (B) Localization of AHR protein in the H460 treated with 11-Cl-BBQ (100 nM), PRXS-848 (250 nM), PRXS-849 (250 nM), or vehicle control (0.1% DMSO) for two hours; top horizontal panel: AHR protein staining using an AHR-specific antibody conjugated with FITC (green) fluorophore; middle panel: DAPI staining; bottle panel: overlaid images from the top panel and the middle panel in the same column. (C) AHR activation (measured by XRE-luciferase reporter assay in Hepa1 cells) of the parental lead 11-Cl-BBQ and analogs PRXS-848 and PRXS-849 at the indicated concentrations for 16 hours. (D) AHR activation of 11-Cl-BBQ cotreated with a known AHR antagonist CH223191 (1 μM) or 11-Cl-BBQ analogs PRXS-848 and PRXS-849 at the indicated concentrations for 16 hours.
FIG. 76 presents representative AhR compounds (BBQ analogs) of the invention effective for activation of AhR transcription. Activation values greater than 1 at 100 nM were considered a hit with nanomolar affinity to promote AhR activity and synergize with the identified compounds from the synergy screens. Referring to FIG. 76, Fold@ 1 nM refers to activation of AhR transcription at 1 nM; Fold@100 nM refers to activation of AbR transcription at 100 nM; and Fold rel @ 100 refers to relative activation at 100 nM compared to parental compound, 11-Cl-BBQ. The representative AhR ligand compounds presented in FIG. 76 activate AhR transcription and therefore are useful as anti-cancer agents, either alone or in combination with the synergizing compounds (and chemotherapeutic agents) described herein.
was identified as a top hit compound based on its potent (>50% inhibition at 0.1 μM), and selective activity against AhR WT cells versus AhR KO cells (>70% difference between WT and KO cells at 10 μM) (FIG. 11). […] This confirmed Analog 523 activates AhR-mediated transcription and functions as an AhR ligand.

[5] = system: p53; test: Western blot of p53 protein levels in H460 cells; type: cell-based, human; settings: TCDD 30 nM
Protocol: Whole cell lysate was prepared in RIPA lysis buffer with 1× Laemmli buffer, then denatured by heating at 100° C. for 5 minutes. Denatured proteins were separated in SDS-PAGE gel and transferred onto PVDF membrane. The PVDF membrane was incubated in TBST with 5% nonfat dry milk for one hour at room temperature prior to incubating with primary antibody of interest overnight at 4° C. with gentle rotation. Appropriate horse radish peroxidase conjugated secondary antibody was applied for one hour at room temperature. Signal was developed by applying SuperSignal West Pico chemiluminescence substrate and captured using the ChemiDoc imaging instrument. Primary antibodies used in this study: anti-AHR antibody (BML-SA210-Enzo Biochem, Farmingdale, NY), anti-p27^Kip1 antibody (610242-BD Biosciences), anti-p53 antibody (DO-1 sc-126-Santa Cruz Biotechnology, Dallas, TX), anti-p21 antibody (2947S-Cell Signaling Technology, Danvers, MA), and anti-GAPDH antibody (sc-36502, Santa Cruz).

[6] = system: H460 cells; test: Senescence-associated beta-galactosidase staining, H460 cells; type: cell-based, human; settings: Dox 50 nM, 5 days
Protocol: H460 cells were seeded at 2×10^5 cells/well in 6-well plate overnight and treated with indicated compounds for 5 days. Media and treatments were refreshed on the […]. Cells were stained for senescence-associated β-galactosidase (SA-βgal) using 5-dodecanoylaminofluorescein di-β-D-galactopyranoside (C12FDG). Briefly, media were aspirated and replaced with fresh media containing 0.1 μM bafilomycin A1 (Calbiochem) and incubated for 1 hour in cell culture incubator. C12FDG (Setare Biotech) was added with a final concentration of 33 μM and incubated for another hour. Fluorescent signal was recorded using CytoFlex S cytometer for 10,000 cells per sample.

Row | Compound | cell viability, monotreatments [1] | cell viability, mono-applications [1] | apoptotic response (Annexin-V staining) [2] [%] | activation of AhR transcription (FIG. 76) [4] | other results
1 | COc1cc(OC)c2ccc(=O)oc2c1 [Citropten, citropten] | little effect | largely ineffective in reducing cell viability | 2.7 |  | 
2 | COc1c2ccoc2nc2c(OC)c(OC[C@@H](O)C(C)(C)O)ccc12 [Evoxine] | little effect | largely ineffective in reducing cell viability | 0.5 |  | HepG2 colony formation [3]: little effect on colony formation inhibition
3 | COC(=O)c1ccc2c(c1)nc(-c1cccc3ccccc13)n2C(=O)c1ccc(F)c(F)c1 [PRXS-848] |  |  |  | did not activate AhR | 
4 | COC(=O)c1ccc2nc(-c3cccc4ccccc34)n(C(=O)c3ccc(F)c(F)c3)c2c1 [PRXS-849] |  |  |  | did not activate AhR | 
5 | Clc1cc2c(cc1Cl)Oc1cc(Cl)c(Cl)cc1O2 [TCDD, reference compound] |  |  |  |  | expression of p53 protein [5]: not altered
6 | COc1cccc2c1C(=O)c1c(O)c3c(c(O)c1C2=O)C[C@@](O)(C(=O)CO)C[C@@H]3O[C@H]1C[C@H](N)[C@H](O)[C@H](C)O1 [doxorubicin, reference compound] |  |  |  |  | SA-β-gal expression [6]: induced SA-β-gal expression independent of the AhR status
